In brackets after ≈: the same amount, converted by molar mass.
How the values were obtained:
P. aeruginosa ATCC 27853 = assay: MIC, broth microdilution; assay type: cell-based; settings: Pseudomonas aeruginosa, ATCC27853, P. aeruginosa ATCC27853
Protocol: (§1) Bacterial strains MIC testing: P. aeruginosa ATCC 27853 and NH57388A were used in these studies. MICs were determined by a broth microdilution assay according to CLSI reference methods (Methods for dilution of antimicrobial susceptibility test for bacteria that grow aerobically. Seventh Edition: Clinical and Laboratory Standards Institute (2006) M&-A7, incorporated by reference in its entirety). Assays were performed in a final volume of 100 μl. The bacterial suspensions were adjusted to yield a cell density of 5×10^5 CFU/ml. Antibiotics were prepared at a concentration equivalent to twofold the highest desired final concentration in culture medium and were then diluted directly into 96-well microtiter plates. Microtiter plates were incubated for 24 h at 35° C. and were read by using a microtiter plate reader (Molecular Devices) at 600 nm as well as by visual observation by using a microtiter plate reading mirror.

P. aeruginosa NH57388A = assay: MIC, broth microdilution; assay type: cell-based; settings: Pseudomonas aeruginosa, NH57388A, P. aeruginosa NIH57388A CF; read-out: MIC
Protocol: as §1

in vivo = settings: Sprague-Dawley, rat, 10 mg/kg
[1] = rat, 10 mg/kg
[2] = Aerosol and IV levofloxacin in saline in normal healthy volunteers and CF subjects (serum, sputum, deconvolution); settings: for Mean projected Cmax in the ELF: CF patients, ELF volume 25 ml; for AUC / Cmax / half-life / clearance: human, in vivo; for clearance: Total levofloxacin clearance, serum
Protocol: Safety, tolerability, and pharmacokinetics (serum, sputum, and urinary excretion) data were collected after each dose.
A weight of 1/y-observed was applied in the regression. Goodness of fit was assessed by the minimized objective function and inspection of weighted residual plots. […] Briefly, this analysis compares the appearance and elimination of drug following aerosol and intravenous doses to determine the amount of drug remaining in the lung (absorption compartment) over time. To estimate concentrations of drug in lung, amounts were divided by estimates of the epithelial lung fluid (ELF) volume (25 ml) for each subject. Noncompartmental pharmacokinetic analysis was subsequently applied to these projected concentrations of drug in the lung to determine values for AUC.
The area under the sputum concentration vs. time curve was estimated using the linear trapezoidal rule.

## C[C@H]1COc2c(N3CCN(C)CC3)c(F)cc3c(=O)c(C(=O)O)cn1c23 [Levofloxacin, levofloxacin]
P. aeruginosa ATCC 27853
  MIC: 1 µg/mL (≈ 2.77 µM)
P. aeruginosa NH57388A
  MIC: 2 µg/mL (≈ 5.53 µM)
In vivo; inhaled or intranasal
  CL/F: 47.2 mL/min/kg
  Cmax: 6.01 µg/mL
  MRT: 42.6 min
  bioavailability: 97.4%
  half-life: 31.2 min
In vivo; iv
  Cmax: 5.54 µg/mL
  MRT: 42 min
  half-life: 29.4 min
[1]; Sprague-Dawley, in vivo
  Plasma MAT: 0.01 h
[1]; IV, mean (+/- SD)
  Plasma CL/F: 2.81 (±0.54) L/hr/kg
[2]; high dose (RDD 40 mg)
  Mean projected Cmax in the ELF: > 1000 µg/mL
[2]; low dose (RDD 20 mg)
  Mean projected Cmax in the ELF: exceeded 500 μg/ml
[2]; CF subjects, aerosol in saline, serum deconvolution
  time for which 50% of the lung dose remains in the lung: at least 0.5 hours
[2]; aerosol doses as low as 20 mg
  peak sputum concentrations higher than 750 mg oral dose: 10 fold
[2]; 20 mg
  AUC: 67100 ng·h/mL
  Cmax: 86.2 µg/mL
  half-life: 54 min
[2]; 40 mg
  AUC: 171000 ng·h/mL
  Cmax: 212 µg/mL
  half-life: 78 min
[2]; 50 mg, CF subjects
  clearance: 235 mL/min
[2]; 50 mg, NHV subjects
  clearance: 287 mL/min
[2]; iv, 50 mg
  AUC: 2500 ng·h/mL
  Cmax: 0.8 µg/mL
[2]; po, 750 mg
  AUC: 93400 ng·h/mL
  Cmax: 8.7 µg/mL

Source: patent publication US10722519B2, “Aerosol fluoroquinolone formulations for improved pharmacokinetics” (priority 2008, dated 2020)
